Results published in publication PMC9578392, “Safety, Tolerability, and Pharmacokinetics of the Novel Antiviral Agent Ensitrelvir Fumaric Acid, a SARS-CoV-2 3CL Protease Inhibitor, in Healthy Adults” (Antimicrobial Agents and Chemotherapy, 2022).
Where two headings read alike, the source gives them in different places.

Experiment: Multiple-dose pharmacokinetics (part 2, cohorts F, G, H)
Format: in vivo, human
Settings: for GLS mean ratio (90% CI) of AUC0-τ (white/Japanese) / GLS mean ratio (90% CI) of Cmax (white/Japanese): 375/125 mg, cohort H vs F; for Cmax / AUC / Tmax: human, plasma, oral; for Cmax / AUC: geometric mean (%CV); for AUC: read-out: AUC0-τ; for Tmax: median (min, max)
[1] = 375 mg, F/375/125 mg (Japanese), Day 1, fasted
[2] = 375 mg, H/375/125 mg (white), Day 1, fasted
[3] = 750 mg, G/750/250 mg (Japanese), Day 1, fasted
[4] = F/375/125 mg (Japanese), Day 5, fasted
[5] = G/750/250 mg (Japanese), Day 5, fasted
[6] = H/375/125 mg (white), Day 5, fasted

Cn1cnc(Cn2c(=O)[nH]/c(=N\c3cc4cn(C)nc4cc3Cl)n(Cc3cc(F)c(F)cc3F)c2=O)n1 [Ensitrelvir, ensitrelvir fumaric acid]
GLS mean ratio (90% CI) of AUC0-τ (white/Japanese) (day 1): 0.7241 (0.6517–0.8046) | GLS mean ratio (90% CI) of Cmax (white/Japanese) (day 1): 0.7699 (0.6738–0.8796) | GLS mean ratio (90% CI) of AUC0-τ (white/Japanese) (day 5): 0.8645 (0.7740–0.9656) | GLS mean ratio (90% CI) of Cmax (white/Japanese) (day 5): 0.8651 (0.7774–0.9627) | GLS mean ratio (90% CI) of AUC0-τ, cohort G [750/250 mg] versus F [375/125 mg] (day 1): 1.6893 (1.4492–1.9692) | GLS mean ratio (90% CI) of Cmax, cohort G [750/250 mg] versus F [375/125 mg] (day 1): 1.5185 (1.2747–1.8089) | GLS mean ratio (90% CI) of AUC0-τ, cohort G [750/250 mg] versus F [375/125 mg] (day 5): 2.2387 (1.9942–2.5132) | GLS mean ratio (90% CI) of Cmax, cohort G [750/250 mg] versus F [375/125 mg] (day 5): 2.1781 (1.9460–2.4379) | Cmax [1]: 29.5 µg/mL | AUC [1]: 484 µg·h/mL | Tmax [1]: 1.5 h | Cmax [2]: 22.7 µg/mL | AUC [2]: 351 µg·h/mL | Tmax [2]: 1.75 h | Cmax [3]: 44.8 µg/mL | AUC [3]: 818 µg·h/mL | Tmax [3]: 3 h | Cmax [4]: 30.4 µg/mL | AUC [4]: 597 µg·h/mL | Tmax [4]: 2 h | Cmax [5]: 66.3 µg/mL | AUC [5]: 1340 µg·h/mL | Tmax [5]: 2.5 h | Cmax [6]: 26.3 µg/mL | AUC [6]: 516 µg·h/mL | Tmax [6]: 1.5 h
